According to ChEMBL document CHEMBL3608278 (J Med Chem, 2015):

Tests used:
[1] = molecular target: T1, Potassium voltage-gated channel subfamily A member 3 (Homo sapiens, UniProt P22001); assay type: cell-based, CHO-K1
[2] = molecular target: T1, Potassium voltage-gated channel subfamily A member 3; design: species or system Blood
[3] = molecular target: T1, Potassium voltage-gated channel subfamily A member 3; experiment: cell-based; design: species or system Blood

T1 sequence (P22001 whole entry): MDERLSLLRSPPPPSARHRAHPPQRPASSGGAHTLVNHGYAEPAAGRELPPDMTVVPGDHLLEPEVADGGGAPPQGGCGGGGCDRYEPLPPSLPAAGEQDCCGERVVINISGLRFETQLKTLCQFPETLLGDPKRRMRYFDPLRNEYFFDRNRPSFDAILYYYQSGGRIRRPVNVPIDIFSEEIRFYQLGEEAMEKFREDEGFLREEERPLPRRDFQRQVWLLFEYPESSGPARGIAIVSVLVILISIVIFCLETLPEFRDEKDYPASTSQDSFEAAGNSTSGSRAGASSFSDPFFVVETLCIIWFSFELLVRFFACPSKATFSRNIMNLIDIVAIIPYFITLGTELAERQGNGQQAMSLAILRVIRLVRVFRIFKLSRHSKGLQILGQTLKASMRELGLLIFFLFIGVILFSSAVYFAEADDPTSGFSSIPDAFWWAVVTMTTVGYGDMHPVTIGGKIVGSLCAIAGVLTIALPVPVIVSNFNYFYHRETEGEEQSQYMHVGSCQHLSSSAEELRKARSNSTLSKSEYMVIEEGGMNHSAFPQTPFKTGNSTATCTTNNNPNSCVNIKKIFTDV

Row | Structure (SMILES) | IC50 [1] | IC50 [2] | IC50 [3]
1 | CC[C@H](C)[C@@H]1NC(=O)[C@@H](NC(=O)[C@H](CCC(=O)O)NC(=O)[C@@H](N)CCCNC(=N)N)CSSC[C@@H](C(=O)O)NC(=O)[C@H]([C@@H](C)O)NC(=O)CNC(=O)[C@@H]2CSSC[C@@H]3NC(=O)[C@H](CCC(N)=O)NC(=O)[C@H](Cc4ccccc4)NC(=O)[C@H](C)NC(=O)[C@H]([C@@H](C)O)NC(=O)[C@H](CSSC[C@H](NC(=O)[C@H](Cc4ccccc4)NC(=O)[C@H](CO)NC(=O)[C@H](CC(C)C)NC(=O)[C@H](CCCNC(=N)N)NC(=O)[C@H](Cc4ccc(O)cc4)NC(=O)[C@H](CCCCN)NC(=O)[C@H](CCSC)NC(=O)[C@H](CO)NC(=O)[C@H](Cc4cnc[nH]4)NC(=O)[C@H](CCCCN)NC3=O)C(=O)N[C@@H](CCCNC(=N)N)C(=O)N[C@@H](CCCCN)C(=O)N[C@@H]([C@@H](C)O)C(=O)N2)NC(=O)[C@H](CCCNC(=N)N)NC(=O)[C@H](CO)NC(=O)[C@H](CCCCN)NC(=O)[C@@H]2CCCN2C(=O)[C@H]([C@@H](C)CC)NC(=O)[C@H]([C@@H](C)O)NC(=O)[C@H](CC(=O)O)NC1=O | 0.095 nM | 0.039 nM | 0.029 nM
2 | CC[C@H](C)[C@@H]1NC(=O)[C@H]([C@@H](C)O)NC(=O)[C@H](CC(=O)O)NC(=O)[C@H](CCC(=O)O)NC(=O)[C@@H](NC(=O)[C@H](CO)NC(=O)[C@@H](N)CCCNC(=N)N)CSSC[C@@H](C(=O)O)NC(=O)[C@H]([C@@H](C)O)NC(=O)CNC(=O)[C@@H]2CSSC[C@@H]3NC(=O)[C@H](CCC(N)=O)NC(=O)[C@H](Cc4ccccc4)NC(=O)[C@H](C)NC(=O)[C@H]([C@@H](C)O)NC(=O)[C@H](CSSC[C@H](NC(=O)[C@H](Cc4ccccc4)NC(=O)[C@H](CO)NC(=O)[C@H](CC(C)C)NC(=O)[C@H](CCCNC(=N)N)NC(=O)[C@H](Cc4ccc(O)cc4)NC(=O)[C@H](CCCCN)NC(=O)[C@H](CCSC)NC(=O)[C@H](CO)NC(=O)[C@H](Cc4cnc[nH]4)NC(=O)[C@H](CCCCN)NC3=O)C(=O)N[C@@H](CCCNC(=N)N)C(=O)N[C@@H](CCCCN)C(=O)N[C@@H]([C@@H](C)O)C(=O)N2)NC(=O)[C@H](CCCNC(=N)N)NC(=O)[C@H](CO)NC(=O)[C@H](CCCCN)NC(=O)[C@@H]2CCCN2C1=O | 0.075 nM | 0.05 nM | 0.031 nM
3 | CC[C@H](C)[C@@H]1NC(=O)[C@@H](NC(=O)[C@H](CO)NC(=O)[C@@H](N)CCCNC(=N)N)CSSC[C@@H](C(=O)O)NC(=O)[C@H]([C@@H](C)O)NC(=O)CNC(=O)[C@@H]2CSSC[C@@H]3NC(=O)[C@H](CCC(N)=O)NC(=O)[C@H](Cc4ccccc4)NC(=O)[C@H](C)NC(=O)[C@H]([C@@H](C)O)NC(=O)[C@H](CSSC[C@H](NC(=O)[C@H](Cc4ccccc4)NC(=O)[C@H](CO)NC(=O)[C@H](CC(C)C)NC(=O)[C@H](CCCNC(=N)N)NC(=O)[C@H](Cc4ccc(O)cc4)NC(=O)[C@H](CCCCN)NC(=O)[C@H](CCSC)NC(=O)[C@H](CO)NC(=O)[C@H](Cc4cnc[nH]4)NC(=O)[C@H](CCCCN)NC3=O)C(=O)N[C@@H](CCCNC(=N)N)C(=O)N[C@@H](CCCCN)C(=O)N[C@@H]([C@@H](C)O)C(=O)N2)NC(=O)[C@H](CCCNC(=N)N)NC(=O)[C@H](CO)NC(=O)[C@H](CCCCN)NC(=O)[C@@H]2CCCN2C(=O)[C@H]([C@@H](C)CC)NC(=O)[C@H]([C@@H](C)O)NC(=O)[C@H](CCC(=O)O)NC1=O | > 3.33 nM | > 24.6 nM | 16.9 nM
4 | CC[C@H](C)[C@@H]1NC(=O)[C@@H](NC(=O)[C@H](CO)NC(=O)[C@@H](N)CCCNC(=N)N)CSSC[C@@H](C(=O)O)NC(=O)[C@H]([C@@H](C)O)NC(=O)CNC(=O)[C@@H]2CSSC[C@@H]3NC(=O)[C@H](CCC(N)=O)NC(=O)[C@H](Cc4ccccc4)NC(=O)[C@H](C)NC(=O)[C@H]([C@@H](C)O)NC(=O)[C@H](CSSC[C@H](NC(=O)[C@H](Cc4ccccc4)NC(=O)[C@H](CO)NC(=O)[C@H](CC(C)C)NC(=O)[C@H](CCCNC(=N)N)NC(=O)[C@H](Cc4ccc(O)cc4)NC(=O)[C@H](CCCCN)NC(=O)[C@H](CCSC)NC(=O)[C@H](CO)NC(=O)[C@H](Cc4cnc[nH]4)NC(=O)[C@H](CCCCN)NC3=O)C(=O)N[C@@H](CCCNC(=N)N)C(=O)N[C@@H](CCCCN)C(=O)N[C@@H]([C@@H](C)O)C(=O)N2)NC(=O)[C@H](CCCNC(=N)N)NC(=O)[C@H](CO)NC(=O)[C@H](CCCCN)NC(=O)[C@@H]2CCCN2C(=O)[C@H](CCC(=O)O)NC(=O)[C@H]([C@@H](C)O)NC(=O)[C@H](CC(=O)O)NC1=O | 1.31 nM | 19.5 nM | 5 nM
5 | CC[C@H](C)[C@@H]1NC(=O)[C@@H](NC(=O)[C@H](CO)NC(=O)[C@@H](N)CCCNC(=N)N)CSSC[C@@H](C(=O)O)NC(=O)[C@H]([C@@H](C)O)NC(=O)CNC(=O)[C@@H]2CSSC[C@@H]3NC(=O)[C@H](CCC(N)=O)NC(=O)[C@H](Cc4ccccc4)NC(=O)[C@H](C)NC(=O)[C@H]([C@@H](C)O)NC(=O)[C@H](CSSC[C@H](NC(=O)[C@H](Cc4ccccc4)NC(=O)[C@H](CO)NC(=O)[C@H](CC(C)C)NC(=O)[C@H](CCCNC(=N)N)NC(=O)[C@H](Cc4ccc(O)cc4)NC(=O)[C@H](CCCCN)NC(=O)[C@H](CCSC)NC(=O)[C@H](CO)NC(=O)[C@H](Cc4cnc[nH]4)NC(=O)[C@H](CCCCN)NC3=O)C(=O)N[C@@H](CCCNC(=N)N)C(=O)N[C@@H](CCCCN)C(=O)N[C@@H]([C@@H](C)O)C(=O)N2)NC(=O)[C@H](CCCNC(=N)N)NC(=O)[C@H](CO)NC(=O)[C@H](CCC(=O)O)NC(=O)[C@@H]2CCCN2C(=O)[C@H]([C@@H](C)CC)NC(=O)[C@H]([C@@H](C)O)NC(=O)[C@H](CC(=O)O)NC1=O | 0.146 nM | 0.056 nM | 0.037 nM
6 | CC[C@H](C)[C@@H]1NC(=O)[C@@H](NC(=O)[C@H](CO)NC(=O)[C@@H](N)CCCNC(=N)N)CSSC[C@@H](C(=O)O)NC(=O)[C@H]([C@@H](C)O)NC(=O)CNC(=O)[C@@H]2CSSC[C@@H]3NC(=O)[C@H](CCC(N)=O)NC(=O)[C@H](Cc4ccccc4)NC(=O)[C@H](C)NC(=O)[C@H]([C@@H](C)O)NC(=O)[C@H](CSSC[C@H](NC(=O)[C@H](Cc4ccccc4)NC(=O)[C@H](CO)NC(=O)[C@H](CC(C)C)NC(=O)[C@H](CCCNC(=N)N)NC(=O)[C@H](Cc4ccc(O)cc4)NC(=O)[C@H](CCCCN)NC(=O)[C@H](CCSC)NC(=O)[C@H](CO)NC(=O)[C@H](Cc4cnc[nH]4)NC(=O)[C@H](CCCCN)NC3=O)C(=O)N[C@@H](CCCNC(=N)N)C(=O)N[C@@H](CCCCN)C(=O)N[C@@H]([C@@H](C)O)C(=O)N2)NC(=O)[C@H](CCC(=O)O)NC(=O)[C@H](CO)NC(=O)[C@H](CCCCN)NC(=O)[C@@H]2CCCN2C(=O)[C@H]([C@@H](C)CC)NC(=O)[C@H]([C@@H](C)O)NC(=O)[C@H](CC(=O)O)NC1=O | 0.983 nM | 4.54 nM | 1.32 nM
7 | CC[C@H](C)[C@@H]1NC(=O)[C@@H](NC(=O)[C@H](CO)NC(=O)[C@@H](N)CCCNC(=N)N)CSSC[C@@H](C(=O)O)NC(=O)[C@H]([C@@H](C)O)NC(=O)CNC(=O)[C@@H]2CSSC[C@@H]3NC(=O)[C@H](CCC(N)=O)NC(=O)[C@H](Cc4ccccc4)NC(=O)[C@H](C)NC(=O)[C@H](CCC(=O)O)NC(=O)[C@H](CSSC[C@H](NC(=O)[C@H](Cc4ccccc4)NC(=O)[C@H](CO)NC(=O)[C@H](CC(C)C)NC(=O)[C@H](CCCNC(=N)N)NC(=O)[C@H](Cc4ccc(O)cc4)NC(=O)[C@H](CCCCN)NC(=O)[C@H](CCSC)NC(=O)[C@H](CO)NC(=O)[C@H](Cc4cnc[nH]4)NC(=O)[C@H](CCCCN)NC3=O)C(=O)N[C@@H](CCCNC(=N)N)C(=O)N[C@@H](CCCCN)C(=O)N[C@@H]([C@@H](C)O)C(=O)N2)NC(=O)[C@H](CCCNC(=N)N)NC(=O)[C@H](CO)NC(=O)[C@H](CCCCN)NC(=O)[C@@H]2CCCN2C(=O)[C@H]([C@@H](C)CC)NC(=O)[C@H]([C@@H](C)O)NC(=O)[C@H](CC(=O)O)NC1=O | 0.152 nM | 1.1 nM | 0.785 nM
8 | CC[C@H](C)[C@@H]1NC(=O)[C@@H](NC(=O)[C@H](CO)NC(=O)[C@@H](N)CCCNC(=N)N)CSSC[C@@H](C(=O)O)NC(=O)[C@H]([C@@H](C)O)NC(=O)CNC(=O)[C@@H]2CSSC[C@@H]3NC(=O)[C@H](CCC(=O)O)NC(=O)[C@H](Cc4ccccc4)NC(=O)[C@H](C)NC(=O)[C@H]([C@@H](C)O)NC(=O)[C@H](CSSC[C@H](NC(=O)[C@H](Cc4ccccc4)NC(=O)[C@H](CO)NC(=O)[C@H](CC(C)C)NC(=O)[C@H](CCCNC(=N)N)NC(=O)[C@H](Cc4ccc(O)cc4)NC(=O)[C@H](CCCCN)NC(=O)[C@H](CCSC)NC(=O)[C@H](CO)NC(=O)[C@H](Cc4cnc[nH]4)NC(=O)[C@H](CCCCN)NC3=O)C(=O)N[C@@H](CCCNC(=N)N)C(=O)N[C@@H](CCCCN)C(=O)N[C@@H]([C@@H](C)O)C(=O)N2)NC(=O)[C@H](CCCNC(=N)N)NC(=O)[C@H](CO)NC(=O)[C@H](CCCCN)NC(=O)[C@@H]2CCCN2C(=O)[C@H]([C@@H](C)CC)NC(=O)[C@H]([C@@H](C)O)NC(=O)[C@H](CC(=O)O)NC1=O | 0.197 nM | 0.373 nM | 0.352 nM
9 | CC[C@H](C)[C@@H]1NC(=O)[C@@H](NC(=O)[C@H](CO)NC(=O)[C@@H](N)CCCNC(=N)N)CSSC[C@@H](C(=O)O)NC(=O)[C@H]([C@@H](C)O)NC(=O)CNC(=O)[C@@H]2CSSC[C@@H]3NC(=O)[C@H](CCC(N)=O)NC(=O)[C@H](Cc4ccccc4)NC(=O)[C@H](C)NC(=O)[C@H]([C@@H](C)O)NC(=O)[C@H](CSSC[C@H](NC(=O)[C@H](Cc4ccccc4)NC(=O)[C@H](CO)NC(=O)[C@H](CC(C)C)NC(=O)[C@H](CCCNC(=N)N)NC(=O)[C@H](Cc4ccc(O)cc4)NC(=O)[C@H](CCCCN)NC(=O)[C@H](CCSC)NC(=O)[C@H](CO)NC(=O)[C@H](Cc4cnc[nH]4)NC(=O)[C@H](CCC(=O)O)NC3=O)C(=O)N[C@@H](CCCNC(=N)N)C(=O)N[C@@H](CCCCN)C(=O)N[C@@H]([C@@H](C)O)C(=O)N2)NC(=O)[C@H](CCCNC(=N)N)NC(=O)[C@H](CO)NC(=O)[C@H](CCCCN)NC(=O)[C@@H]2CCCN2C(=O)[C@H]([C@@H](C)CC)NC(=O)[C@H]([C@@H](C)O)NC(=O)[C@H](CC(=O)O)NC1=O | 0.12 nM | 0.083 nM | 0.047 nM
